Patent US8895585B2, “Nicotinamide derivative or salt thereof” (FUJIFILM Corporation, priority 2010, dated 2014)

Target: T1, glutathione S-transferase (GST)-fused full-length human Syk protein (Homo sapiens, UniProt P43405)
T1 construct: (GST)-fused full-length human Syk protein; GST (glutathione S-transferase); purchased Carna Biosciences
Experiment: Syk enzyme assay
Format: biochemical
Details: Syk enzyme assay, Test Example 1; read-out: IC50 of Syk-inhibitory activity
Protocol: A glutathione S-transferase (GST)-fused full-length human Syk protein (Carna Biosciences), which had been generated using a Baculovirus expression system, was used in the Syk enzyme assay.
15 μl of a reaction solution (1.2 ng Syk, 20 mM HEPES, 10 mM MgCl2, 50 mM NaCl, 2 mM DTT, 0.05% BSA, pH 7.0) containing a Syk protein and a predetermined concentration of a test compound was shaken for 2 minutes, and it was then left at rest at room temperature for 13 minutes. Thereafter, 5 μl of Biotin-EDPDYEWPSA-NH2 (final concentration: 0.4 μM) serving as a substrate peptide and 5 μl of ATP (final concentration: 27 μM) were added to the reaction solution, and the obtained mixture was then shaken for 2 minutes. The reaction solution was further left at rest at room temperature for 40 minutes, so as to carry out an enzyme reaction.
Thereafter, 50 μl of a reaction termination solution [5 μg/ml Streptavidin, 0.18 μg/ml PT66-K, 30 mM HEPES (pH 7.0), 150 mM KF, 75 mM EDTA, 0.15% BSA, 0.075% Tween20], which contained Streptavidin-Xlent (Cisbio) and Mab PT66-K (Cisbio), was added to the reaction solution to terminate the enzyme reaction. At the same time, the reaction solution was left at rest at room temperature for 1 hour, so as to carry out an antigen-antibody reaction. Thereafter, using EnVision (PerkinElmer), the time-resolved fluorescence was measured at 615 nm and 665 nm, so that the phosphorylation of the substrate peptide was measured.
In addition, the following are standards for evaluating IC50 of Syk-inhibitory activity used in Table 21. • A: Up to 10 nM • B: 10 to 50 nM • C: 50 to 100 nM • D: 100 to 1000 nM The set of numbers (XYZ-xyz) given in each Example number column indicates the corresponding Example number (Example XYZ-xyz) in Table 21.

| IC50 | SMILES |
| --- | --- |
| 100 to 1000 nM | COCCOc1ncc(Nc2nc(N[C@@H]3CCCC[C@@H]3N)c(F)cc2C(N)=O)c2ccccc12 (relative stereo) [Example 004-150, 6-(cis-2-aminocyclohexylamino)-5-fluoro-2-((1-(2-methoxyethoxy)isoquinolin-4-yl)amino)-nicotinamide] |
| 100 to 1000 nM | CCOCCOCCOc1ncc(Nc2nc(N[C@@H]3CCCC[C@@H]3N)c(F)cc2C(N)=O)c2ccccc12 (relative stereo) [Example 004-152, 6-(cis-2-aminocyclohexylamino)-2-((1-(2-(2-ethoxyethoxy)ethoxy)isoquinolin-4-yl)amino)-5-fluoronicotinamide] |
| 100 to 1000 nM | COc1ncc(Nc2nc(N[C@@H]3CCCC[C@@H]3N)c(F)cc2C(N)=O)c2ccccc12 (relative stereo) [Example 004-153, 6-(cis-2-aminocyclohexylamino)-5-fluoro-2-((1-methoxyisoquinolin-4-yl)amino)-nicotinamide] |
| 100 to 1000 nM | COCC(C)Oc1ncc(Nc2nc(N[C@@H]3CCCC[C@@H]3N)c(F)cc2C(N)=O)c2ccccc12 (relative stereo) [Example 004-154, 6-(cis-2-aminocyclohexylamino)-5-fluoro-2-((1-((1-methoxypropan-2-yl)oxy)isoquinolin-4-yl)amino)nicotinamide] |
| < 10 nM | COc1nccc2c(Nc3nc(N[C@@H]4CCCC[C@@H]4N)c(F)cc3C(N)=O)cccc12 (relative stereo) [Example 004-155, 6-(cis-2-aminocyclohexylamino)-5-fluoro-2-((1-methoxyisoquinolin-5-yl)amino)-nicotinamide] |
| < 10 nM | COCC(C)Oc1nccc2c(Nc3nc(N[C@@H]4CCCC[C@@H]4N)c(F)cc3C(N)=O)cccc12 (relative stereo) [Example 004-156, 6-(cis-2-aminocyclohexylamino)-5-fluoro-2-((1-((1-methoxypropan-2-yl)oxy)isoquinolin-5-yl)amino)nicotinamide] |
| 10 to 50 nM | CCOCCOCCOc1nccc2c(Nc3nc(N[C@@H]4CCCC[C@@H]4N)c(F)cc3C(N)=O)cccc12 (relative stereo) [Example 004-158, 6-(cis-2-aminocyclohexylamino)-2-((1-(2-(2-ethoxyethoxy)ethoxy)isoquinolin-5-yl)amino)-5-fluoronicotinamide] |
| < 10 nM | CCOc1nccc2cc(Nc3nc(N[C@@H]4CCCC[C@@H]4N)c(F)cc3C(N)=O)ccc12 (relative stereo) [Example 004-165, 6-(cis-2-aminocyclohexylamino)-2-((1-ethoxyisoquinolin-6-yl)amino)-5-fluoronicotinamide] |
| < 10 nM | CC(C)Oc1nccc2cc(Nc3nc(N[C@@H]4CCCC[C@@H]4N)c(F)cc3C(N)=O)ccc12 (relative stereo) [Example 004-166, 6-(cis-2-aminocyclohexylamino)-5-fluoro-2-((1-isopropoxyisoquinolin-6-yl)amino)-nicotinamide] |

More lines, now with the values behind:

| SMILES | IC50 |
| --- | --- |
| NC(=O)c1cc(F)c(N[C@@H]2CCCC[C@@H]2N)nc1Nc1cncc(-c2ccccc2Cl)c1 (relative stereo) [Example 004-146, 6-(cis-2-aminocyclohexylamino)-2-((5-(2-chlorophenyl)pyridin-3-yl)amino)-5-fluoronicotinamide] | < 10 nM |
| NC(=O)c1cc(F)c(N[C@@H]2CCCC[C@@H]2N)nc1Nc1cncc(-c2cccc(Cl)c2)c1 (relative stereo) [Example 004-147, 6-(cis-2-aminocyclohexylamino)-2-((5-(3-chlorophenyl)pyridin-3-yl)amino)-5-fluoronicotinamide] | < 10 nM |
| NC(=O)c1cc(F)c(N[C@@H]2CCCC[C@@H]2N)nc1Nc1cncc(-c2ccc(Cl)cc2)c1 (relative stereo) [Example 004-148, 6-(cis-2-aminocyclohexylamino)-2-((5-(4-chlorophenyl)pyridin-3-yl)amino)-5-fluoronicotinamide] | 10 to 50 nM |
| COC(C)CCOc1ncc(Nc2nc(N[C@@H]3CCCC[C@@H]3N)c(F)cc2C(N)=O)c2ccccc12 (relative stereo) [Example 004-151, 6-(cis-2-aminocyclohexylamino)-5-fluoro-2-((1-(3-methoxybutoxy)isoquinolin-4-yl)amino)-nicotinamide] | 100 to 1000 nM |
| COC(C)CCOc1nccc2c(Nc3nc(N[C@@H]4CCCC[C@@H]4N)c(F)cc3C(N)=O)cccc12 (relative stereo) [Example 004-157, 6-(cis-2-aminocyclohexylamino)-5-fluoro-2-((1-(3-methoxybutoxy)isoquinolin-5-yl)amino)-nicotinamide] | 10 to 50 nM |
| CC(C)COc1nccc2cc(Nc3nc(N[C@@H]4CCCC[C@@H]4N)c(F)cc3C(N)=O)ccc12 (relative stereo) [Example 004-167, 6-(cis-2-aminocyclohexylamino)-5-fluoro-2-((1-isobutoxyisoquinolin-6-yl)amino)-nicotinamide] | < 10 nM |
| CCOCCOCCOc1nccc2cc(Nc3nc(N[C@@H]4CCCC[C@@H]4N)c(F)cc3C(N)=O)ccc12 (relative stereo) [Example 004-169, 6-(cis-2-aminocyclohexylamino)-2-((1-(2-(2-ethoxyethoxy)ethoxy)isoquinolin-6-yl)amino)-5-fluoronicotinamide] | < 10 nM |
| CC(C)COCCOc1nccc2cc(Nc3nc(N[C@@H]4CCCC[C@@H]4N)c(F)cc3C(N)=O)ccc12 (relative stereo) [Example 004-170, 6-(cis-2-aminocyclohexylamino)-5-fluoro-2-((1-(2-isobutoxyethoxy)isoquinolin-6-yl)amino)-nicotinamide] | < 10 nM |
| NC(=O)c1cc(F)c(N[C@@H]2CCCC[C@@H]2N)nc1Nc1ccc2c(OCC3CCCO3)nccc2c1 (relative stereo) [Example 004-171, 6-(cis-2-aminocyclohexylamino)-5-fluoro-2-((1-((tetrahydrofuran-2-yl)-methoxy)isoquinolin-6-yl)amino)nicotinamide] | < 10 nM |
| CCOc1ccc2cc(Nc3nc(N[C@@H]4CCCC[C@@H]4N)c(F)cc3C(N)=O)cnc2c1 (relative stereo) [Example 004-173, 6-(cis-2-aminocyclohexylamino)-2-((7-ethoxyquinolin-3-yl)amino)-5-fluoronicotinamide] | < 10 nM |
| CCCOc1ccc2cc(Nc3nc(N[C@@H]4CCCC[C@@H]4N)c(F)cc3C(N)=O)cnc2c1 (relative stereo) [Example 004-174, 6-(cis-2-aminocyclohexylamino)-5-fluoro-2-((7-propoxyquinolin-3-yl)amino)nicotinamide] | < 10 nM |
| CCOc1cnc2cc(Nc3nc(N[C@@H]4CCCC[C@@H]4N)c(F)cc3C(N)=O)ccc2n1 (relative stereo) [Example 004-176, 6-(cis-2-aminocyclohexylamino)-2-((2-ethoxyquinoxalin-6-yl)amino)-5-fluoronicotinamide] | < 10 nM |
| CCCOc1cnc2cc(Nc3nc(N[C@@H]4CCCC[C@@H]4N)c(F)cc3C(N)=O)ccc2n1 (relative stereo) [Example 004-177, 6-(cis-2-aminocyclohexylamino)-5-fluoro-2-((2-propoxyquinoxalin-6-yl)amino)nicotinamide] | 10 to 50 nM |
| COCCOc1cnc2cc(Nc3nc(N[C@@H]4CCCC[C@@H]4N)c(F)cc3C(N)=O)ccc2n1 (relative stereo) [Example 004-178, 6-(cis-2-aminocyclohexylamino)-5-fluoro-2-((2-(2-methoxyethoxy)quinoxalin-6-yl)amino)-nicotinamide] | 10 to 50 nM |
